In BindingDB's records for doi:10.7270/Q2F769WQ (University of Pittsburgh, 2007):

biological target: T1, Dual specificity protein phosphatase 1 (Homo sapiens, UniProt P28562); assay: MKP-1 phosphatase inhibitor potency, dose response, biochemical, in vitro, confirmation (AID 551); settings: pH 7; 22 °C
T1 sequence (P28562 whole entry): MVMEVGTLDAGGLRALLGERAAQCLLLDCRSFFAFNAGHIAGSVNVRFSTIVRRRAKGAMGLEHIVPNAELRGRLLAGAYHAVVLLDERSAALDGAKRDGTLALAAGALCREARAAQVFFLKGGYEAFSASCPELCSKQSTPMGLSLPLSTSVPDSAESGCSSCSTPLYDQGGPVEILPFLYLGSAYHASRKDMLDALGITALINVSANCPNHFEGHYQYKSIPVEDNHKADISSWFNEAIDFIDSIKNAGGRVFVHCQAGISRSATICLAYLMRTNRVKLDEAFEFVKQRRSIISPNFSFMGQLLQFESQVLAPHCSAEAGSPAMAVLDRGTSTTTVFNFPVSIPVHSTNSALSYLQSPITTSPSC

Going from Cc1ccc(C)n1-c1cccc(C(=O)O)c1 to CCn1nc(-c2ccccc2)nc2c(=O)n(C)c(=O)nc1-2 [1-Ethyl-6-methyl-3-phenyl-1H-pyrimido[5,4-e][1,2,4]triazine-5,7-dione], the IC50 falls from 12 µM to 0.197 µM (61-fold).

Going from O=C(Nc1ccc2nc(-c3ccco3)c(-c3ccco3)nc2c1)N1CCCCCC1 to O=C(Nc1ccccc1)c1ccc2nc(-c3ccco3)c(-c3ccco3)nc2c1 [2,3-di-2-furyl-N-phenyl-6-quinoxalinecarboxamide], the IC50 rises from 12.3 µM to 21.6 µM (1.8-fold).

Compared with CCCCCC#CCC#CCC#CCC#CCCCC(=O)O, CCCCn1c(SCC(=O)c2ccc(OC)cc2OC)nc2cc(S(N)(=O)=O)ccc21 [1-butyl-2-[2-(2,4-dimethoxyphenyl)-2-oxidanylidene-ethyl]sulfanyl-benzimidazole-5-sulfonamide] is higher in IC50: 6.53 µM for the first, over 50 µM for the second.

Cn1ncnc2c(=O)n(C)c(=O)nc1-2 and CCn1nc(-c2cccs2)nc2c(=O)n(C)c(=O)nc1-2 [1-ethyl-6-methyl-3-thiophen-2-yl-pyrimido[5,4-e][1,2,4]triazine-5,7-dione] are within 1.5-fold of each other in IC50: 0.184 µM for the first, 0.158 µM for the second.

Compared with [O-]/[N+](=C\c1ccncc1)c1ccccc1, [O-]/[N+](=C\c1ccc(OC(F)F)cc1)c1ccccc1 [1-[4-(difluoromethoxy)phenyl]-N-phenylmethanimine oxide] is higher in IC50: 49.9 µM for the first, over 50 µM for the second.

O=C(CSc1nc2n[nH]cc2c(=O)n1-c1ccccc1)N1CCCc2ccccc21 and CCn1c(=O)cc(SCC(=O)N2CCN(Cc3ccc4c(c3)OCO4)CC2)c2ccccc21 [1-ethyl-4-[[2-keto-2-(4-piperonylpiperazino)ethyl]thio]carbostyril] cannot be ordered by IC50: over 50 µM for the first, over 50 µM for the second.

Compared with CCn1cc(C(=O)NC2CCC(C)CC2)c(=O)c2cc(S(=O)(=O)N3CCCCC3)ccc21 (centres undefined), COc1ccc(S(=O)(=O)N2CCC(NC(=O)Nc3ccc(C)cc3)CC2)cc1 [1-[1-(4-Methoxy-benzenesulfonyl)-piperidin-4-yl]-3-p-tolyl-urea] is higher in IC50: 48.6 µM for the first, over 50 µM for the second. The first is the more potent here.

Going from CCSCCOC(=O)C1=C(C)N=C2CCCC(=O)C2C1c1coc2ccccc2c1=O (centres undefined) to CC(C)Cn1c(N)c(C(=O)COC(=O)c2cc(-c3ccco3)nc3ccccc23)c(=O)n(C)c1=O [2-(2-furanyl)-4-quinolinecarboxylic acid [2-[4-amino-1-methyl-3-(2-methylpropyl)-2,6-dioxo-5-pyrimidinyl]-2-oxoethyl] ester], the IC50 falls from over 50 µM to 23.1 µM.

Oc1ncnc2[nH]ncc12 and CC(C)(C)C(=O)c1sc(Nc2ccccc2)nc1N [1-(4-amino-2-anilino-1,3-thiazol-5-yl)-2,2-dimethyl-1-propanone] cannot be ordered by IC50: over 50 µM for the first, over 50 µM for the second.

First: O=C1C=Cc2ccccc2C1=O [1,2-dihydronaphthalene-1,2-dione]
Second: Cc1nn(C(C)C(=O)N2CCCCC2)c(=O)c2c1sc1ccccc12 (centres undefined) [2-(2-keto-1-methyl-2-piperidino-ethyl)-4-methyl-benzothiopheno[2,3-d]pyridazin-1-one]
The IC50 of the first is lower: 18.4 µM for the first, over 50 µM for the second. The first is the more potent here.

First: Cc1nc2cc(-c3cccc(F)c3)nn2c(C)c1CCC(=O)N1CCC2(CC1)OCCO2 [1-(1,4-dioxa-8-azaspiro[4.5]decan-8-yl)-3-[2-(3-fluorophenyl)-5,7-dimethyl-6-pyrazolo[1,5-a]pyrimidinyl]-1-propanone]
Second: CCOc1ccc(-c2cc3nc(C4CCN(C(=O)OC(C)(C)C)CC4)c(C(=O)O)cn3n2)cc1 [2-(4-ethoxyphenyl)-5-[1-[(2-methylpropan-2-yl)oxy-oxomethyl]-4-piperidinyl]-6-pyrazolo[1,5-a]pyrimidinecarboxylic acid]
The IC50 of the first is higher: over 50 µM for the first, 15 µM for the second. The second is the more potent here.

COc1ccc(-c2cc3nc(C4CCN(C(=O)OC(C)(C)C)CC4)c(C(=O)O)cn3n2)cc1 [2-(4-methoxyphenyl)-5-[1-[(2-methylpropan-2-yl)oxy-oxomethyl]-4-piperidinyl]-6-pyrazolo[1,5-a]pyrimidinecarboxylic acid] and CCn1c(SCC(=O)Nc2nc3ccc(OC)cc3s2)nc2c1c(=O)n(C)c(=O)n2C [2-(7-Ethyl-1,3-dimethyl-2,6-dioxo-2,3,6,7-tetrahydro-1H-purin-8-ylsulfanyl)-N-(6-methoxy-benzothiazol-2-yl)-acetamide] are within 1.5-fold of each other in IC50: 26.9 µM for the first, 18.2 µM for the second.
